# Test results from patent US20050176655A1, “Novel macrolide derivatives havaing effect of potentiating antifungal activity” (priority 2002, published 2005).
# Assays:
# Test in all cases: Paper disk method, enhancing action for activities of azole antifungal agents
# Assay type in all cases: cell-based
# [1] = tested on: Aspergillus niger ATCC 6275; details: 48 hours; for Inhibition activity (inhibition ring mm) A. niger ATCC 6275 GYF / Transparency of the inhibition ring A. niger ATCC 6275 GYF: fluconazole 10 μg/ml; for Inhibition activity (inhibition ring mm) A. niger ATCC 6275 GYM / Transparency of the inhibition ring A. niger ATCC 6275 GYM: miconazole 0.1 μg/ml; for Inhibition activity (inhibition ring mm) A. niger ATCC 6275 GY / Transparency of the inhibition ring A. niger ATCC 6275 GY: GY medium (control, no azole)
# Outline: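 Paper-disk assay on A. niger ATCC 6275 spores (0.2%) seeded on GY agar pH 6.0. After 48 h, inhibition-zone diameter recorded in mm and transparency graded A (transparent) to E (opaque).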
# [2] = tested on: fluconazole resistant Candida albicans ATCC 64550; details: 24 hours; for Inhibition activity (inhibition ring mm) C. albicans ATCC 64550 GYF / Transparency of the inhibition ring C. albicans ATCC 64550 GYF: fluconazole 30 μg/ml; for Inhibition activity (inhibition ring mm) C. albicans ATCC 64550 GYM / Transparency of the inhibition ring C. albicans ATCC 64550 GYM: miconazole 0.15 μg/ml
# Experimental: Test organisms used were Candida albicans ATCC 64548, fluconazole resistant Candida albicans ATCC 64550 and Aspergillus niger ATCC 6275. Candida spp. were cultured in Waksman broth (glucose 2.0%, peptone 0.5%, dry yeast 0.3%, meat extract 0.5%, NaCl 0.5% and CaCO3 0.3%, pH 7.0) at 27° C. for 40 hours, then 0.1% thereof was inoculated on GY agar medium (glucose 1.0%, yeast extract 0.5% and agar 0.8%, pH 6.0). Spore suspension 0.2% of Aspergillus niger ATCC 6275 was inoculated on GY agar medium.
# Azole antifungal agents used were miconazole (Sigma Inc., the U.S.) and fluconazole (ICN Pharmaceuticals, Inc., the U.S.), and were added at concentrations without affecting growth on each test organisms follows.
# Candida albicans ATCC 64550: miconazole 0.15 μg/ml or fluconazole 30 μg/ml.
# In the above medium, a medium added with miconazole to GY medium (control) is designated as GYM, and a medium added with fluconazole is designated as GYF. Activities were assessed by means of paper disk method (thickness: 8 mm, ADVANTEC MFS INC., Japan). Diameter of inhibition ring is expressed with mm unit after culturing Candida spp. for 24 hours and Aspergillus niger ATCC 6275 for 48 hours. Transparency of the inhibition ring is assessed with 5 degrees of A, B, C, D and E (transparence<A<B<C<D<E<opaque).
# [3] = tested on: Candida albicans ATCC 64548; details: 24 hours; for Inhibition activity (inhibition ring mm) C. albicans ATCC 64548 GYM / Transparency of the inhibition ring C. albicans ATCC 64548 GYM: miconazole 0.03 μg/ml; for Inhibition activity (inhibition ring mm) C. albicans ATCC 64548 GYF / Transparency of the inhibition ring C. albicans ATCC 64548 GYF: fluconazole 0.5 μg/ml
# Outline: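 GY agar (pH 6.0) seeded with C. albicans ATCC 64548 precultured in Waksman broth at 27° C for 40 hours, supplemented with sub-growth-inhibitory miconazole 0.03 μg/ml or fluconazole 0.5 μg/ml. Paper disk method; inhibition-zone diameter (mm) read after 24 hours, transparency graded A–E.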
SMILES,Inhibition activity (inhibition ring mm) A. niger ATCC 6275 GYF ([1]; 10 μg/8 mm disk),Transparency of the inhibition ring A. niger ATCC 6275 GYF ([1]; 10 μg/8 mm disk),Inhibition activity (inhibition ring mm) A. niger ATCC 6275 GYF ([1]; 50 μg/8 mm disk),Transparency of the inhibition ring A. niger ATCC 6275 GYF ([1]; 50 μg/8 mm disk),Inhibition activity (inhibition ring mm) A. niger ATCC 6275 GYM ([1]; 50 μg/8 mm disk),Transparency of the inhibition ring A. niger ATCC 6275 GYM ([1]; 50 μg/8 mm disk),Inhibition activity (inhibition ring mm) C. albicans ATCC 64550 GYF ([2]; 50 μg/8 mm disk),Transparency of the inhibition ring C. albicans ATCC 64550 GYF ([2]; 50 μg/8 mm disk),Inhibition activity (inhibition ring mm) C. albicans ATCC 64550 GYM ([2]; 50 μg/8 mm disk),Transparency of the inhibition ring C. albicans ATCC 64550 GYM ([2]; 50 μg/8 mm disk),Inhibition activity (inhibition ring mm) C. albicans ATCC 64548 GYM ([3]; 50 μg/8 mm disk),Transparency of the inhibition ring C. albicans ATCC 64548 GYM ([3]; 50 μg/8 mm disk),Inhibition activity (inhibition ring mm) A. niger ATCC 6275 GYM ([1]; 10 μg/8 mm disk),Transparency of the inhibition ring A. niger ATCC 6275 GYM ([1]; 10 μg/8 mm disk),Inhibition activity (inhibition ring mm) A. niger ATCC 6275 GY ([1]; 50 μg/8 mm disk),Transparency of the inhibition ring A. niger ATCC 6275 GY ([1]; 50 μg/8 mm disk),Inhibition activity (inhibition ring mm) C. albicans ATCC 64548 GYM ([3]; 10 μg/8 mm disk),Transparency of the inhibition ring C. albicans ATCC 64548 GYM ([3]; 10 μg/8 mm disk),Inhibition activity (inhibition ring mm) C. albicans ATCC 64548 GYF ([3]; 50 μg/8 mm disk),Transparency of the inhibition ring C. albicans ATCC 64548 GYF ([3]; 50 μg/8 mm disk),further results
"CCC(=O)OC1C(C)OC(OC2C(C)C(=O)OC(C(C)(O)C(CC)OC(=O)CC)C(C)C3=C(C)CC(C)(O3)C(OC3OC(C)CC(N(C)C)C3O)C2C)CC1(C)OC (stereo not shown) [Compound 776, 4″,13-Di-O-propionyl-8,9-Anhydro-pseudo-erythromycin A 6,9-hemiketal]",16 mm,E (Growth of test organism was inhibited 35% or less.),16 mm,E (Growth of test organism was inhibited 35% or less.),20 mm,C (Growth of test organism was inhibited 55% or more and 75% or less.),9 mm,E (Growth of test organism was inhibited 35% or less.),11 mm,E (Growth of test organism was inhibited 35% or less.),11 mm,D (Growth of test organism was inhibited 35% or more and 55% or less.),,,,,,,,,Inhibition activity (inhibition ring mm) C. albicans ATCC 64548 GYF ([3]; 100 μg/8 mm disk): 15 mm; Transparency of the inhibition ring C. albicans ATCC 64548 GYF ([3]; 100 μg/8 mm disk): E (Growth of test organism was inhibited 35% or less.)
"CCCCCC(=O)OC1C(C)OC(OC2C(C)C(=O)OC(C(C)(O)C(CC)OC(=O)CCCCC)C(C)C3=C(C)CC(C)(O3)C(OC3OC(C)CC(N(C)C)C3O)C2C)CC1(C)OC (stereo not shown) [Compound 777, 4″,13-Di-O-hexanoyl-8,9-Anhydro-pseudo-erythromycin A 6,9-hemiketal]",11 mm,E (Growth of test organism was inhibited 35% or less.),17 mm,D (Growth of test organism was inhibited 35% or more and 55% or less.),13 mm,B (Growth of test organism was inhibited 75% of more and 95% or less.),14 mm,A (Growth of test organism was inhibited 95% or more.),14 mm,A (Growth of test organism was inhibited 95% or more.),14 mm,A (Growth of test organism was inhibited 95% or more.),11 mm,E (Growth of test organism was inhibited 35% or less.),9 mm,E (Growth of test organism was inhibited 35% or less.),11 mm,D (Growth of test organism was inhibited 35% or more and 55% or less.),11 mm,D (Growth of test organism was inhibited 35% or more and 55% or less.),Inhibition activity (inhibition ring mm) C. albicans ATCC 64550 GYF ([2]; 10 μg/8 mm disk): 11 mm; Transparency of the inhibition ring C. albicans ATCC 64550 GYF ([2]; 10 μg/8 mm disk): D (Growth of test organism was inhibited 35% or more and 55% or less.)
"CCC(OC(=O)c1ccccc1)C(C)(O)C1OC(=O)C(C)C(OC2CC(C)(OC)C(OC(=O)c3ccccc3)C(C)O2)C(C)C(OC2OC(C)CC(N(C)C)C2O)C2(C)CC(C)=C(O2)C1C (stereo not shown) [Compound 778, 4″,13-Di-O-benzoyl-8,9-Anhydro-pseudo-erythromycin A 6,9-hemiketal]",12 mm,E (Growth of test organism was inhibited 35% or less.),13 mm,D (Growth of test organism was inhibited 35% or more and 55% or less.),16 mm,A (Growth of test organism was inhibited 95% or more.),13 mm,B (Growth of test organism was inhibited 75% of more and 95% or less.),14 mm,B (Growth of test organism was inhibited 75% of more and 95% or less.),16 mm,A (Growth of test organism was inhibited 95% or more.),14 mm,E (Growth of test organism was inhibited 35% or less.),10 mm,E (Growth of test organism was inhibited 35% or less.),12 mm,B (Growth of test organism was inhibited 75% of more and 95% or less.),9 mm,D (Growth of test organism was inhibited 35% or more and 55% or less.),Inhibition activity (inhibition ring mm) C. albicans ATCC 64550 GYF ([2]; 10 μg/8 mm disk): 10 mm; Transparency of the inhibition ring C. albicans ATCC 64550 GYF ([2]; 10 μg/8 mm disk): E (Growth of test organism was inhibited 35% or less.)
"CCC(OC(=O)c1ccccc1)C(C)(O)C1OC(=O)C(C)C(OC2CC(C)(OC)C(O)C(C)O2)C(C)C(OC2OC(C)CC(N(C)C)C2O)C2(C)CC(C)=C(O2)C1C (stereo not shown) [Compound 779, 13-O -benzoyl-8,9-Anhydro-pseudoerythro-mycin A 6,9-hemiketal]",11 mm,E (Growth of test organism was inhibited 35% or less.),13 mm,D (Growth of test organism was inhibited 35% or more and 55% or less.),17 mm,E (Growth of test organism was inhibited 35% or less.),10 mm,E (Growth of test organism was inhibited 35% or less.),11 mm,D (Growth of test organism was inhibited 35% or more and 55% or less.),15 mm,A (Growth of test organism was inhibited 95% or more.),,,11 mm,E (Growth of test organism was inhibited 35% or less.),10 mm,E (Growth of test organism was inhibited 35% or less.),9 mm,D (Growth of test organism was inhibited 35% or more and 55% or less.),
